Experimental data from US11498909B2, “Compound acting as antibiotics” (KBP BIOSCIENCES CO., LTD., priority 2018, dated 2022).
Converted amounts (≈) assume the structure as drawn.

Legend:
Escherichia coli = assay: In vitro antibacterial activity, agar dilution MIC (Experiment 1); type: cell-based; conditions: agar dilution; for MIC50: read-out: MIC50; for MIC90: read-out: MIC90
Description: (§1) Tested strains: all the clinically separated strains below were purchased from public facilities.
(§2) Escherichia coli ATCC25922, Pseudomonas aeruginosa ATCC27853, Klebsiella pneumoniae ATCC700603, and the like.
(§3) Tested Samples: Imipenem, Ceftazidime: Commercial Products, the Following Experiments were Carried Out According to the Content of an Effective Ingredient in Each Commercial Product;
(§4) The compounds of the present invention, their chemical names, and preparation methods are shown in the preparation example of each compound.
(§5) Experiment method: Agar dilution method, refer to National Committee for Clinical Laboratory Standards. 2006. Methods for Dilution Antimicrobial Susceptibility Tests for Bacteria That Grow Aerobically; Approved Standard—Seventh Edition M7-A7, Vol 26, No. 2, 2006, to determine the MIC of the compound. MIC represents the minimum inhibitory concentration.

Pseudomonas aeruginosa = assay: as above; type: cell-based; conditions: agar dilution (Table 3); for MIC50: read-out: MIC50; for MIC90: read-out: MIC90
Description: as §1, §2, §3, §4, §5

[1] = Pharmacokinetics (PK) determination in SD rats (Experiment 4); type: in vivo; conditions: plasma; for Cl_obs / Vz_obs / t1/2z / λ_z: IV 2 mg/kg; for AUC(0-t) / AUC(0-inf): Sprague-Dawley (SD), rat, iv, 2 mg/kg; for AUC(0-inf): read-out: AUCINF_obs
Description: The compound of the present invention, self-prepared and dissolved in a suitable solvent.
Instrument and equipment: API4000 LC-MS/MS
Chromatographic column: Waters XBridge C18(2.1×50 mm, […])
Rat blood collection: Animals were fixed. The animal's tail was heated with a water bathtub 10 minutes before each time point. About 200 μL of the blood was collected through the caudal vein. After the blood collection, the blood was placed in an anticoagulation tube containing heparin sodium. The blood samples were centrifuged at 8000 rpm for 6 minutes at 4° C. to obtain plasma samples. The plasma must be prepared within 30 minutes after the blood collection. The plasma was stored in a refrigerator at −80° C. before the test.
(1) Test samples were removed from the refrigerator (−80° C.), naturally thawed at room temperature, and then vortexed for 5 minutes;
(2) 20 μL sample was precisely pipetted to a 1.5 mL centrifuge tube;
(3) 200 μL of the internal standard solution was added;
(4) The mixture was vortexed for 5 minutes and centrifuged for 5 minutes (12000 revolutions per minute);
(5) 100 μL of the supernate was precisely pipetted, 100 μL of water was added, the mixture was vortexed for 5 minutes, and the sample was sent to LC-MS/MS for analysis.
The results of the concentrations of the test samples (plasma samples) were output with Analyst 1.6.1 of AB Corporation. The meaning value, the standard deviation, the coefficient of variation, and other parameters (not necessary to calculate the parameter that can be directly output from Analyst 1.6.1) were calculated with Microsoft Excel, and the PK parameter is calculated with Pharsight Phoenix 6.1 software.

Klebsiella pneumoniae = assay: In vitro antibacterial activity, agar dilution MIC (Experiment 1); type: cell-based; conditions: agar dilution
Description: as §1, §2, §3, §4, §5

[2] = tested on: polymyxin-resistant mcr-1 positive Enterobacteriaceae; assay: In vitro antibacterial effect on polymyxin-resistant mcr-1 positive Enterobacteriaceae, agar dilution MIC (Experiment 2); type: cell-based, Escherichia coli; conditions: for MIC50 / MIC90: Escherichia coli; for MIC50: read-out: MIC50 Value, polymyxin-resistant mcr-1 positive Escherichia coli, agar dilution; for MIC90: read-out: MIC90 Value, polymyxin-resistant mcr-1 positive Escherichia coli, agar dilution; for MIC50 Value / MIC90 Value: polymyxin-resistant mcr-1 positive Escherichia coli, agar dilution
Description: Tested samples: the compounds of the present invention, prepared according to the methods of the preparation examples;
Polymyxin E sulphate, Ampicillin, Cefotaxime, Gentamicin, Ciprofloxacin, Tetracycline, and Bactrim were all commercial products, the following experiments were carried out according to the content of an effective ingredient in each commercial product.
Tested strains: Escherichia coli carrying mcr-1 gene isolated from animals and Escherichia coli ATCC25922, a quality control strain, were provided by South China Agricultural University.
With reference to the agar dilution method in CLSI, the MIC value of the tested drugs to the polymyxin resistant mcr-1 positive Escherichia coli were determined.
Preparation of drug-containing agar plates: a drug solution with the highest concentration was prepared for each compound; the drug solution with the highest concentration was subjected to the double dilution; for each of dilution gradient, 1 mL (20×drug working solution) of the drug solution was added to 19 mL MH agar at 45-50° C.; immediately after addition, the agar and the drug solution were uniformly mixed to give a drug-containing agar plate with final concentrations of […], and the plate was solidified for later use; and in the meanwhile, a growth control group was arranged.
Inoculum preparation and culture: the strains stored at −80° C. were rejuvenated and formulated with broth so that the turbidity reached or exceeded 0.5 #McFarland unit; a 96-well plate was used as the inoculation tank, and the bacterial solution was diluted with sodium chloride injection so that the content of bacteria inoculated on the agar was 10^4 CFU/point. A multi-point inoculation instrument was used to inoculate the bacterial solution to the surface of the labeled drug-containing agar. After the water in the inoculation point was completely absorbed by the agar, the plate was placed upside down in a 37° C. constant-temperature incubator and incubated for 16-20 hours.

Molecule | MIC50 (Pseudomonas aeruginosa) | MIC90 (Pseudomonas aeruginosa) | Cl_obs [1] | Vz_obs [1] | t1/2z [1] | λ_z [1] | AUC(0-t) [1] | AUC(0-inf) [1] | other results
C[C@@H](O)[C@H](NC(=O)c1ccc(C#CC#Cc2ccc(CNCCCN3CCOCC3)o2)cc1)C(=O)NO [Compound 22, N-((2S,3R)-3-hydroxy-1-(hydroxyamino)-1-oxobutan-2-yl)-4-((5-((3-morpholinopropylamino)methyl)furan-2-yl)buta-1,3-diynyl)benzamide] | 4 µg/mL (≈ 7.87 µM) | > 16 µg/mL | – | – | – | – | – | – | MIC50 (Escherichia coli): 0.5 µg/mL (≈ 0.983 µM); MIC90 (Escherichia coli): 2 µg/mL (≈ 3.93 µM)
C[C@@H](O)[C@H](NC(=O)c1ccc(C#CC#Cc2ccc(CN3CCOCC3)o2)cc1)C(=O)NO [Compound 23, N-((2S,3R)-3-hydroxy-1-(hydroxyamino)-1-oxobutan-2-yl)-4-((5-(morpholinomethyl)furan-2-yl)buta-1,3-diynyl)benzamide] | 1 µg/mL (≈ 2.21 µM) | 8 µg/mL (≈ 17.7 µM) | 30 ± 8.33 mL/min/kg | 0.52 ± 0.02 L/kg | 12.6 ± 3.6 min | 3.47 ± 1.09 h⁻¹ | 1160 ± 278 ng·h/mL | 1160 ± 277 ng·h/mL | MIC50 (Klebsiella pneumoniae; read-out: MIC50): 1 µg/mL (≈ 2.21 µM); MIC90 (Klebsiella pneumoniae; read-out: MIC90): 1 µg/mL (≈ 2.21 µM); MIC50 (Escherichia coli): 0.25 µg/mL (≈ 0.554 µM); MIC90 (Escherichia coli): 0.25 µg/mL (≈ 0.554 µM)
Cn1nc(CO)cc1-c1ccc(C#Cc2ccc(C(=O)N[C@H](C(=O)NO)C(C)(C)N)cc2)cc1 [Compound 37, (S)—N-(3-amino-1-(hydroxyamino)-3-methyl-1-oxobutan-2-yl)-4-((4-(3-(hydroxymethyl)-1-methyl-1H-pyrazol-5-yl)phenyl)ethynyl)benzamide] | 1 µg/mL (≈ 2.17 µM) | – | 78.5 ± 5.5 mL/min/kg | 17.6 ± 4.22 L/kg | 158 ± 45.6 min | 0.28 ± 0.08 h⁻¹ | 402 ± 21.6 ng·h/mL | 426 ± 28.5 ng·h/mL | –
C[C@@H](O)[C@H](NC(=O)c1ccc(C#CC#Cc2ccc(CNCCOCCO)s2)cc1)C(=O)NO [Compound 42, N-((2S,3R)-3-hydroxy-1-(hydroxyamino)-1-oxobutan-2-yl)-4-((5-((2-(2-hydroxyethoxy)ethylamino)methyl)thienyl-2-yl)buta-1,3-diynyl)benzamide] | 0.5 µg/mL (≈ 1.03 µM) | 4 µg/mL (≈ 8.24 µM) | 84.3 ± 9.17 mL/min/kg | 2.16 ± 0.30 L/kg | 18 ± 0.6 min | 2.35 ± 0.07 h⁻¹ | 396 ± 41 ng·h/mL | 398 ± 41 ng·h/mL | –
C[C@@H](O)[C@H](NC(=O)c1ccc(C#CC#Cc2ccc(CN3CCOCC3)s2)cc1)C(=O)NO [Compound 43, N-((2S,3R)-3-hydroxy-1-(hydroxyamino)-1-oxobutan-2-yl)-4-((5-(morpholinomethyl)thienyl-2-yl)buta-1,3-diynyl)benzamide] | 1 µg/mL (≈ 2.14 µM) | 4 µg/mL (≈ 8.56 µM) | 36.5 ± 3.67 mL/min/kg | 0.88 ± 0.07 L/kg | 16.8 ± 0.6 min | 2.48 ± 0.06 h⁻¹ | 919 ± 100 ng·h/mL | 921 ± 100 ng·h/mL | –
C[C@@H](O)[C@H]1C(=O)N2C(C(=O)O)=C(SCCN=CN)C[C@H]12 [Imipenem, reference compound] | 2 µg/mL (≈ 6.68 µM) | 16 µg/mL (≈ 53.4 µM) | – | – | – | – | – | – | MIC50 [2]: 0.125 µg/mL (≈ 0.418 µM); MIC90 [2]: 4 µg/mL (≈ 13.4 µM)
CN(C)[C@@H]1C(O)=C(C(N)=O)C(=O)[C@@]2(O)C(O)=C3C(=O)c4c(O)cccc4[C@@](C)(O)[C@H]3C[C@@H]12 [Tetracycline] | – | – | – | – | – | – | – | – | MIC50 [2]: 32 µg/mL (≈ 72 µM); MIC90 [2]: 64 µg/mL (≈ 144 µM)
Gentamicin | – | – | – | – | – | – | – | – | MIC50 Value [2]: 4 µg/mL; MIC90 Value [2]: 64 µg/mL
Polymyxin E sulphate | – | – | – | – | – | – | – | – | MIC50 Value [2]: 16 µg/mL; MIC90 Value [2]: 32 µg/mL
